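Exposure lasted 48 hours, with cells grown in 96-well plates and compounds tested at five concentrations. Here, GI50 denotes the concentration required for 50% inhibition of growth. TGI is the concentration that stops growth completely.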
Key:
Experiment in all cases: NCI tumour cell line growth inhibition, 48 h
UACC-257 melanoma = test system: UACC-257 melanoma
HCT-116 colon = test system: HCT-116 colon
SF-295 CNS = test system: SF-295 CNS
NCI-H226 lung = test system: NCI-H226 lung
LOX IMVI melanoma = test system: LOX IMVI melanoma
HCC-2998 colon = test system: HCC-2998 colon
UACC-62 melanoma = test system: UACC-62 melanoma
OVCAR-4 ovarian = test system: OVCAR-4 ovarian
SF-268 CNS = test system: SF-268 CNS

Row | Structure (SMILES) | TGI (UACC-257 melanoma) [µM] | TGI (HCT-116 colon) [µM] | TGI (SF-295 CNS) [µM] | TGI (NCI-H226 lung) [µM] | TGI (LOX IMVI melanoma) [µM] | TGI (HCC-2998 colon) [µM] | TGI (UACC-62 melanoma) [µM] | TGI (OVCAR-4 ovarian) [µM] | TGI (SF-268 CNS) [µM] | GI50 (UACC-257 melanoma) [µM] | GI50 (HCT-116 colon) [µM] | GI50 (SF-295 CNS) [µM] | GI50 (NCI-H226 lung) [µM] | GI50 (SF-268 CNS) [µM] | GI50 (LOX IMVI melanoma) [µM] | GI50 (HCC-2998 colon) [µM] | GI50 (UACC-62 melanoma) [µM] | GI50 (OVCAR-4 ovarian) [µM]
1 | CSc1nc(NC2OCC(OC(C)=O)C(OC(C)=O)C2OC(C)=O)c(N=C(C)C(C)=O)c(=O)n1C (configuration not stated) | > 100 | > 100 | > 100 | > 100 | > 100 | > 100 | > 100 | > 100 |  |  |  |  |  |  |  |  |  | 
2 | O=C(Cc1nc2ccccc2s1)Nc1ccc(Cl)cc1 | > 100 | > 100 | > 100 | > 100 | > 100 | > 100 | > 100 | > 100 | > 100 |  |  |  |  |  |  |  |  | 
3 | C[N+](C)(C)CC(=O)N/N=C(\CCC(=O)NCCc1ccccc1)CC(=O)c1ccccc1 | > 100 | > 100 | > 100 | > 100 | > 100 | > 100 | > 100 | > 100 | > 100 |  |  |  |  |  |  |  |  | 
4 | CCN(CC)c1ccc(C2CC(c3cc(OC)c(OC)c(OC)c3)=NN2)cc1 (configuration not stated) | > 100 | > 100 | 5.19 | > 29.7 | > 42 | > 27 | > 68.2 | > 100 | > 100 | 20.2 | 0.744 | 0.188 | 4.48 | 0.797 | 0.83 | 1.15 | 0.446 | 4.34
5 | COc1cc2c3c(c4ccc(OC)c(OC)c4c2cc1OC)CN1CCC[C@@H]1C3 | 17.7 | 3.1 | 6.39 | 0.263 | 0.384 | 1.78 | 0.35 | 1.42 | 2.38 |  |  |  |  |  |  |  |  | 
6 | Nc1nc(Cl)cc(NCCCCCNc2cc(Cl)nc(N)n2)n1 | > 100 | > 100 | > 100 | > 100 | > 100 | > 100 | 83.9 | > 100 | > 100 |  |  |  |  |  |  |  |  | 
7 | O=C(NCCO)c1cc2c(cn1)[nH]c1ccccc12 | > 100 | > 100 | > 100 | > 100 | > 100 | 33.2 | > 100 | > 100 | > 100 |  |  |  |  |  |  |  |  | 
8 | CC1=C(C(=O)Nc2ccccc2)C(c2ccc([N+](=O)[O-])cc2)C(C(=O)Nc2ccccc2)=C(C)N1 | 53.8 | 37.2 | > 100 | > 100 | 30.5 | 45.8 | 27.9 |  | 57.9 |  |  |  |  |  |  |  |  | 
9 | O=Cc1ccc(-c2ccc(-c3nc4ccccc4[nH]3)cc2)s1 | > 100 | 39 | 55.5 | 82.3 | 64.6 | 81.3 | 52.9 | 96.1 | 48.3 | 45.4 | 18.4 | 18.6 | 27.3 | 19.8 | 21.8 | 29.3 | 22.1 | 33.8
10 | CC(C)N(C(=O)C1(C)CC1)C(C)C | > 100 | > 100 | > 100 | > 100 |  | > 100 | > 100 | > 100 | > 100 |  |  |  |  |  |  |  |  | 
11 | O=C1Nc2cc(Cl)ccc2N=CC1NC(=O)C(c1ccccc1)c1ccccc1Cl (configuration not stated) | > 100 | > 100 | > 100 | > 100 | > 100 | > 100 | > 100 | > 100 | > 100 |  |  |  |  |  |  |  |  | 
12 | Cc1nnc(N=Nc2c(O)[nH]c3c(Cl)cc(Cl)cc23)n1N | > 100 | > 100 | > 100 | > 100 | > 100 | > 100 | > 100 | > 100 | > 100 |  |  |  |  |  |  |  |  | 
13 | C#Cc1c(C)c(/C=C/C(C)=C/C=C/C(C)=C/C(=O)OC)n(C)c1C | > 100 | > 100 | > 100 |  | > 100 |  | > 100 | > 100 | > 100 |  |  |  |  |  |  |  |  | 
14 | COc1ccc(/C=C/C(=O)C(C)(C)CN2CCCCC2)cc1 | 46.2 | 30.8 | 97.5 | 45.9 | 29.6 | 33.7 | 65.5 | 22.1 | 59.8 |  |  |  |  |  |  |  |  | 
15 | COc1cccc(NC(=O)C(C)(C)C)c1C=O | > 100 | > 100 | > 100 | > 100 | > 100 | > 100 | > 100 | > 100 | > 100 |  |  |  |  |  |  |  |  | 
16 | CN(C)c1ncnc2c1Cc1ccccc1C(=O)N2C | > 100 | > 100 | > 100 | > 100 | > 100 | > 100 | > 100 | > 100 | > 100 |  |  |  |  |  |  |  |  | 

Row | Structure (SMILES) | TGI (UACC-257 melanoma) [µM] | TGI (HCT-116 colon) [µM] | TGI (SF-295 CNS) [µM] | TGI (NCI-H226 lung) [µM] | TGI (LOX IMVI melanoma) [µM] | TGI (HCC-2998 colon) [µM] | TGI (UACC-62 melanoma) [µM] | TGI (OVCAR-4 ovarian) [µM] | TGI (SF-268 CNS) [µM] | GI50 (UACC-257 melanoma) [µM] | GI50 (HCT-116 colon) [µM] | GI50 (SF-295 CNS) [µM] | GI50 (NCI-H226 lung) [µM] | GI50 (SF-268 CNS) [µM] | GI50 (LOX IMVI melanoma) [µM] | GI50 (HCC-2998 colon) [µM] | GI50 (UACC-62 melanoma) [µM] | GI50 (OVCAR-4 ovarian) [µM]
17 | C=CCCOC(=O)CO[N+](=O)[O-] | > 100 | > 100 | > 100 | > 100 | > 100 | > 100 |  | > 100 | > 100 |  |  |  |  |  |  |  |  | 
18 | Cc1ccc2c(c1)C(C)Cc1c(ncnc1-n1cnc3cc(C)ccc31)N2C (configuration not stated) | 21.4 | 5.21 |  | 22.8 | 12.2 | 16.3 | 16.7 | 19 | 12.3 | 5.34 | 0.0316 |  | 0.0551 | 0.045 | 0.0361 | 0.0422 | 0.086 | 0.0729
19 | N.N.N.N.O=NN1CCCCCC1(P(=O)([O-])[O-])P(=O)([O-])[O-].[Pt+4].[Pt+4] | > 100 | > 100 | > 100 | > 100 | > 100 | > 100 | > 100 | > 100 | > 100 | > 100 | > 100 | > 100 | > 100 | > 100 | > 100 | > 100 | > 100 | > 100
20 | C=CCCCn1ccc2ccccc21 | > 100 | > 100 | > 100 | > 100 | > 100 | > 100 | > 100 |  | > 100 |  |  |  |  |  |  |  |  | 
21 | Cc1ccc(-n2c3nc(=O)n(C)c(=O)c-3nc3ccccc32)cc1 | 26.9 | 61.3 | 46.5 | 68.7 | 43.7 | 20.6 | 5.52 | 28.5 | > 100 |  |  |  |  |  |  |  |  | 
22 | CC1CN(c2ccc(Cl)cc2)CC(C)(C)OC(=O)O1 (configuration not stated) | > 100 | > 100 | > 100 | > 100 | > 100 | > 100 | > 100 | > 100 | > 100 |  |  |  |  |  |  |  |  | 
23 | COCc1c(CO)cnc(C)c1OC1OC(CO)C(O)C(O)C1O (configuration not stated) | > 100 | > 100 | > 100 | > 100 | > 100 | > 100 | > 100 | > 100 | > 100 |  |  |  |  |  |  |  |  | 
24 | CCN(CC)CC.CCOc1ccc(NC(=O)N=C=[N-])cc1.[CH-]1CCCCC1.[CH-]1CCCCC1.[CH-]1CCCCC1.[Cl-].[Sn+4] | 0.12 | 0.0289 | 0.149 | 0.183 | 0.0483 | 0.0669 | 0.0559 | 0.139 | 0.0954 | 0.0389 | 0.014 | 0.0521 | 0.0737 | 0.0332 | 0.0157 | 0.0255 | 0.0228 | 0.0446
25 | COc1ccc2c(c1O)C(=O)C(CCC(=O)O)CC2 (configuration not stated) | > 100 | > 100 | > 100 |  | > 100 | > 100 | > 100 | > 100 |  |  |  |  |  |  |  |  |  | 
26 | COc1cc(OC)c2ssc3c(OC)cc(OC)c4ssc1c2-c43 | > 100 | > 100 | > 100 | > 100 | > 100 | > 100 | > 100 | > 100 | > 100 |  |  |  |  |  |  |  |  | 
27 | NC(=NCCCC1(c2ccccc2)CCCC1)Nc1ccc(Cl)cc1 | 3.56 | 2.86 | 3.06 |  | 2.93 | 3.08 | 3.2 | 3.17 | 3.35 | 1.82 | 1.44 | 1.62 |  | 1.66 | 1.58 | 1.66 | 1.68 | 1.68
28 | COc1cc(Br)c(CC2(C#N)c3ccccc3C3C(N2C(=O)c2ccccc2)C3(Cl)Cl)cc1OC (configuration not stated) | > 65.5 | > 65.5 |  | > 65.5 | > 65.5 | > 65.5 | > 65.5 |  | > 65.5 |  |  |  |  |  |  |  |  | 
29 | CCOC(=O)Cc1nc2ccccc2s1 | 33.2 | 39 | 32.2 | 49.2 | 32.4 | > 100 | 33.3 | > 10 | 39.2 |  |  |  |  |  |  |  |  | 
30 | COc1c2c3ccccc3nc-2n(C)c2ccccc12 | 55.6 | 81.7 | > 100 | 74.3 | 26.3 |  | 33 |  | 30.4 | 21.9 | 4.18 | 20.8 | 6.77 | 10.2 | 4.73 |  | 11.1 | 
31 | O=C(O)C1=C(C(=O)Nc2ccccc2)C2C=CC1C2 (configuration not stated) | > 100 | > 100 | > 100 |  | > 100 | > 100 | > 100 | > 100 | > 100 |  |  |  |  |  |  |  |  | 
